For one assay, the target named is MOZ-KAT6A (Homo sapiens (Human), UniProt Q92794). Nature of the assay: biochemical.
The target in another assay is HBO1-KAT7 (Homo sapiens (Human), UniProt O95251). Nature of the assay: biochemical.
Assay [1] deals with histone H3 Lysine 14 acetylation in U2OS cells. Nature of the assay: Histone H3 Lysine 14 Acetylation Biomarker Assay. The assay is classed as cell-based. Conditions: Homo sapiens, serum free medium, 24 hours incubation. On the procedure: Compounds were tested for their ability to inhibit acetylation of the histone H3 Lysine 14 marker in the following assay:
The cell line U2OS was seeded at a density of 3,000 cells per well in 384-well optical quality tissue culture plates in RPMI medium supplemented with 10% foetal bovine serum and 10 mM Hepes. The cells were allowed to adhere for 24 hours under standard culture conditions (37 degree Celsius, 5% CO2). At the end of this period the cells were washed with serum free medium. […] After incubation for 24 hours, the cells were fixed with 4% formaldehyde in PBS for 15 minutes at room temperature, washed with phosphate buffer saline and blocked with blocking buffer containing 0.2% TritonX100 and 2% BSA. Anti-H3K14ac specific antibody (Cell Signalling Technologies) in blocking buffer was added and incubated overnight at 4 degree Celsius. After washing, a secondary antibody labelled with AlexaFluor 488 dye (ThermoFisher) and Hoechst 33342 (1 μg/mL, Life Technologies) were added for 2 hours incubation at room temperature. Plates were washed and read on a PerkinElmer Opera HCS high content imaging platform. Using a Columbus image analysis pipeline, individual nuclei were located by Hoechst 33342 stain and the acetylation level was calculated from the AlexaFluor 488-related intensity in the same area.

Another assay has as its target TIP60-KAT5 (Homo sapiens (Human), UniProt Q92993). Nature of the assay: biochemical.
In assay [2] the test system is histone H2A.Z Lysine 7 acetylation in U2OS cells. Kind of assay: H2A.Z Lysine 7 Acetylation Biomarker Assay. The following applies: Homo sapiens, serum free medium, 24 hours incubation. The format is cell-based. On the procedure: Compounds were tested for their ability to inhibit the histone H2A.Z Lysine 7 acetylation marker in the following assay: The cell line U2OS was seeded at a density of 3,000 cells per well in 384-well optical quality tissue culture plates in RPMI medium supplemented with 10% foetal bovine serum and 10 mM Hepes. The cells were allowed to adhere for 24 hours under standard culture conditions (37 degree Celsius, 5% CO2). At the end of this period the cells were washed with serum free medium. […] 2018, at 30 μM concentration. After incubation for 24 hours, the cells were fixed with 4% formaldehyde in PBS for 15 minutes at room temperature, washed with phosphate buffer saline and blocked with blocking buffer containing 0.2% TritonX100 and 2% BSA. Anti-H2A.ZK7ac specific antibody (Abcam) in blocking buffer was added and incubated overnight at 4 degree Celsius. After washing, a secondary antibody labelled with AlexaFluor 488 dye (ThermoFisher) and Hoechst 33342 (1 μg/mL, Life Technologies) were added for 2 hours incubation at room temperature. Plates were washed and read on a PerkinElmer Opera HCS high content imaging platform. Using a Columbus image analysis pipeline, individual nuclei were located by Hoechst 33342 stain and the acetylation level was calculated from the AlexaFluor 488-related intensity in the same area.

For the next assay, the target named is KAT7 (Homo sapiens (Human), UniProt O95251). Kind of assay: KAT assay (SAMDI mass spectrometry), KAT7.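 Note: Baculovirus-expressed enzyme acetylating a histone peptide at room temperature, percent conversion from product and substrate peak areas, Ki from a Morrison tight-binding competitive fit.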 The format is biochemical.
Chain of KAT7 (O95251 whole entry): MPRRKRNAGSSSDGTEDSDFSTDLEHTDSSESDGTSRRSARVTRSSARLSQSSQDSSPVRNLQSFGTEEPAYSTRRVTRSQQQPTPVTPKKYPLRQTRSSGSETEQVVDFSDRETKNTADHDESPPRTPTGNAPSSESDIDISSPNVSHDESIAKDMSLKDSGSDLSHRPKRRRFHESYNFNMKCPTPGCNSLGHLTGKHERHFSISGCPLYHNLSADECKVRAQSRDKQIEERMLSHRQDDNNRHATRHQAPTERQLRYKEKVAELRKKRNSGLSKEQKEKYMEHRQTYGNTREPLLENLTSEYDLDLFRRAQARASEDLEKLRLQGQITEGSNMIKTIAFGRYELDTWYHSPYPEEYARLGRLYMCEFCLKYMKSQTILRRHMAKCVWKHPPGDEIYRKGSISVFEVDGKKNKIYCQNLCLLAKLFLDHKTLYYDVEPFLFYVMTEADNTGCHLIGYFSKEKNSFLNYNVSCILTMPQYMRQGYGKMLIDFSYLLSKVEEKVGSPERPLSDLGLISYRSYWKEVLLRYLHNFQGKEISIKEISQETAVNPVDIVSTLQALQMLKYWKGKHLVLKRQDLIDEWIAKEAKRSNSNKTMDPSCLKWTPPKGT
A further assay addresses KAT8 (Homo sapiens (Human), UniProt Q9H7Z6). Kind of assay: KAT assay (SAMDI mass spectrometry), KAT8. The format is biochemical.
The target in a further assay is KAT6B (Homo sapiens (Human), UniProt Q8WYB5). Kind of assay: KAT assay (SAMDI mass spectrometry), KAT6B. The format is biochemical.
Chain of KAT6B (Q8WYB5 whole entry): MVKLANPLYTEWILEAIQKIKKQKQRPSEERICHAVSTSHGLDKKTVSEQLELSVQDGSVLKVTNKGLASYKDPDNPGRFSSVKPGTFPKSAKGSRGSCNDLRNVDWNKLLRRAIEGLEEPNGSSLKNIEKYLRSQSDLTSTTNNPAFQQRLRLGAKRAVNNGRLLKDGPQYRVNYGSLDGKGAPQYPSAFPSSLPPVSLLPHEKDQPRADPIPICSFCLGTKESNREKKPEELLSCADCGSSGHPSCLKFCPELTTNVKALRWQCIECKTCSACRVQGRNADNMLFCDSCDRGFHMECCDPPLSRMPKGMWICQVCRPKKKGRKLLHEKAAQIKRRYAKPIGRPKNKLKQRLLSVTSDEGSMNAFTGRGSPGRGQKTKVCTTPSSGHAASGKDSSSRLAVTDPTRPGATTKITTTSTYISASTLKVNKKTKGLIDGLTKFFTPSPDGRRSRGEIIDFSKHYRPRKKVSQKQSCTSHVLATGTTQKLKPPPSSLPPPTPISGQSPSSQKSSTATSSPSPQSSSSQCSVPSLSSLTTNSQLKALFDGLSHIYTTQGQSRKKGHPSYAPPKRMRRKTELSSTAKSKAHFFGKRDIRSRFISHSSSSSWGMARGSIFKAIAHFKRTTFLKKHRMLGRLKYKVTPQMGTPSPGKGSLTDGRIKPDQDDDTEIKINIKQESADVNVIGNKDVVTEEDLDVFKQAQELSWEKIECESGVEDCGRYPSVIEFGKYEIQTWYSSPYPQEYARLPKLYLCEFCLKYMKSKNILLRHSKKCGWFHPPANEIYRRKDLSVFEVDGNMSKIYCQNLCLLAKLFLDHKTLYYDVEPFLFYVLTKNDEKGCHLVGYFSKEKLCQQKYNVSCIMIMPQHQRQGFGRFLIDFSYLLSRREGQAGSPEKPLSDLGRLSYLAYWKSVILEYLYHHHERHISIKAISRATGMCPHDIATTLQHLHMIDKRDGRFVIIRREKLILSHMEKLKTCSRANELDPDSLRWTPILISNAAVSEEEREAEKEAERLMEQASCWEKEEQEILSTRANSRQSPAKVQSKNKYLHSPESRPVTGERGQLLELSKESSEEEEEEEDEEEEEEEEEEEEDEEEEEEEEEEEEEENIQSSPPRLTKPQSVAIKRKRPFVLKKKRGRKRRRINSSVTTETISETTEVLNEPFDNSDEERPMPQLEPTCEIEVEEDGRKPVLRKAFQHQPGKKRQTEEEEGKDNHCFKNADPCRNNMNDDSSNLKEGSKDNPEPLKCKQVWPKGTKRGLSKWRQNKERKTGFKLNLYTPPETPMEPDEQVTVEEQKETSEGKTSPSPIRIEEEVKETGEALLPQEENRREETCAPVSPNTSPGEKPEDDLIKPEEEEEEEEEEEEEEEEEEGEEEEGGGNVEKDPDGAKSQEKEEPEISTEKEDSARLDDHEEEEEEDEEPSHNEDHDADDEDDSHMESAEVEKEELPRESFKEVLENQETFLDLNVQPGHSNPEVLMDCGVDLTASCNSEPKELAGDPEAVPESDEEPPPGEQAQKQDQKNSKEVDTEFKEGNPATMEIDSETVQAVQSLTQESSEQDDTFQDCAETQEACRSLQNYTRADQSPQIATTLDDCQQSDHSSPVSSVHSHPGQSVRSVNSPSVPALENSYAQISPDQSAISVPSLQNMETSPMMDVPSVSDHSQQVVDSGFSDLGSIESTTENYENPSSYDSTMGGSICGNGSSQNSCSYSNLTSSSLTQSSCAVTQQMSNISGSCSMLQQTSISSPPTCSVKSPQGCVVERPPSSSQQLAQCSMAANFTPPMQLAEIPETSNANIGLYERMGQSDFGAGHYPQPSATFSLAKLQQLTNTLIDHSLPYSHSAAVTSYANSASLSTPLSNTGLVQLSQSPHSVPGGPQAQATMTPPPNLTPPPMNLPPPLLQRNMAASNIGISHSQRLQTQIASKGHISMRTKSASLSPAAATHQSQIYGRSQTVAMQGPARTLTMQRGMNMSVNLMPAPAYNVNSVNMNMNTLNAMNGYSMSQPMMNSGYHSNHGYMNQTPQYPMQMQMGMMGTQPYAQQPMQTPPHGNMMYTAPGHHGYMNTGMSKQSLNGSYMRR
Another assay addresses KAT6A (Homo sapiens (Human), UniProt Q92794). Nature of the assay: KAT assay (SAMDI mass spectrometry), KAT6A.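 Note: Baculovirus-expressed KAT6A acetylating histone H3 (1-21) peptide (2 µM), 30-60 min at room temperature, % product conversion fitted to Morrison equation for tight-binding competitive inhibitors.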 The assay is classed as biochemical.
A further assay has as its target KAT5 (Homo sapiens (Human), UniProt Q92993). Kind of assay: KAT assay (SAMDI mass spectrometry), KAT5.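 Note: Baculovirus-expressed KAT5 acetylating a histone H4 peptide at room temperature, read as percent conversion to product, Ki from a Morrison tight-binding competitive fit.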 The format is biochemical.
Assay [3] deals with histone H3K23 acetylation in U2OS cells. Kind of assay: Histone H3 Lysine 23 Acetylation Biomarker Assay. The format is cell-based. Conditions: Homo sapiens, 24 hours incubation. On the procedure:
Compounds were tested for their ability to inhibit acetylation of the histone H3K23 marker in the following assay:
The cell line U2OS was seeded at a density of 9,000 cells per well in 96 well optical quality tissue culture plates in RPMI medium and 10% foetal bovine serum, and allowed to adhere for 24 hours under standard culture conditions (37 degree Celsius, 5% CO2). At the end of this period the medium was aspirated. […] After incubation for 24 hours, the cells were fixed with 3.7% formaldehyde in PBS for 20 minutes at room temperature, washed (5×5 minutes) with phosphate buffer saline containing 0.1% Tween 20 and blocked with Odyssey blocking buffer (LI-COR, Lincoln, Nebr.) containing 0.1% TritonX100. Anti-H3K23ac specific antibody (Abcam ab177275) in Odyssey blocking buffer containing 0.1% Tween 20 was added and incubated for 16 hours at 4 degree Celsius. After washing (as above), a secondary antibody labelled with Alexa647 dye (LifeTechnologies) and Hoechst 33342 (1 μg/mL, SigmaAldrich) were added for 1 hour incubation. Plates were washed as previously and read on a PerkinElmer Phenix high content imaging platform. Using a Columbus image analysis pipeline, individual nuclei were located by Hoechst 33342 stain and the acetylation level was calculated from the Alexa647-related intensity in the same area.

Setting [4] is: read-out: KAT7 Ki at 1 μM AcCoA.
Setting [5] is: read-out: KAT8 Ki at 1 μM AcCoA.
[6] abbreviates: 25 μM AcCoA, read-out: KAT6b Ki at 25 μM AcCoA.
[7] abbreviates: read-out: KAT6a Ki at 1 μM AcCoA, 1 μM AcCoA.
The mark [8] stands for this setting: read-out: KAT6a Ki at 10 μM AcCoA, 10 μM AcCoA.
The mark [9] stands for this setting: read-out: KAT5 Ki at 1 μM AcCoA.
[10] abbreviates: read-out: KAT6b Ki at 1 μM AcCoA, 1 μM AcCoA.

SMILES strings stand for the structures. Where two headings read alike, the source gives them in different places.

Consider 15 molecules from patent US11492346B2, “Benzisoxazole sulfonamide derivatives” (Pfizer Inc., priority 2019, dated 2022).

Chain of KAT6A (Q92794 whole entry): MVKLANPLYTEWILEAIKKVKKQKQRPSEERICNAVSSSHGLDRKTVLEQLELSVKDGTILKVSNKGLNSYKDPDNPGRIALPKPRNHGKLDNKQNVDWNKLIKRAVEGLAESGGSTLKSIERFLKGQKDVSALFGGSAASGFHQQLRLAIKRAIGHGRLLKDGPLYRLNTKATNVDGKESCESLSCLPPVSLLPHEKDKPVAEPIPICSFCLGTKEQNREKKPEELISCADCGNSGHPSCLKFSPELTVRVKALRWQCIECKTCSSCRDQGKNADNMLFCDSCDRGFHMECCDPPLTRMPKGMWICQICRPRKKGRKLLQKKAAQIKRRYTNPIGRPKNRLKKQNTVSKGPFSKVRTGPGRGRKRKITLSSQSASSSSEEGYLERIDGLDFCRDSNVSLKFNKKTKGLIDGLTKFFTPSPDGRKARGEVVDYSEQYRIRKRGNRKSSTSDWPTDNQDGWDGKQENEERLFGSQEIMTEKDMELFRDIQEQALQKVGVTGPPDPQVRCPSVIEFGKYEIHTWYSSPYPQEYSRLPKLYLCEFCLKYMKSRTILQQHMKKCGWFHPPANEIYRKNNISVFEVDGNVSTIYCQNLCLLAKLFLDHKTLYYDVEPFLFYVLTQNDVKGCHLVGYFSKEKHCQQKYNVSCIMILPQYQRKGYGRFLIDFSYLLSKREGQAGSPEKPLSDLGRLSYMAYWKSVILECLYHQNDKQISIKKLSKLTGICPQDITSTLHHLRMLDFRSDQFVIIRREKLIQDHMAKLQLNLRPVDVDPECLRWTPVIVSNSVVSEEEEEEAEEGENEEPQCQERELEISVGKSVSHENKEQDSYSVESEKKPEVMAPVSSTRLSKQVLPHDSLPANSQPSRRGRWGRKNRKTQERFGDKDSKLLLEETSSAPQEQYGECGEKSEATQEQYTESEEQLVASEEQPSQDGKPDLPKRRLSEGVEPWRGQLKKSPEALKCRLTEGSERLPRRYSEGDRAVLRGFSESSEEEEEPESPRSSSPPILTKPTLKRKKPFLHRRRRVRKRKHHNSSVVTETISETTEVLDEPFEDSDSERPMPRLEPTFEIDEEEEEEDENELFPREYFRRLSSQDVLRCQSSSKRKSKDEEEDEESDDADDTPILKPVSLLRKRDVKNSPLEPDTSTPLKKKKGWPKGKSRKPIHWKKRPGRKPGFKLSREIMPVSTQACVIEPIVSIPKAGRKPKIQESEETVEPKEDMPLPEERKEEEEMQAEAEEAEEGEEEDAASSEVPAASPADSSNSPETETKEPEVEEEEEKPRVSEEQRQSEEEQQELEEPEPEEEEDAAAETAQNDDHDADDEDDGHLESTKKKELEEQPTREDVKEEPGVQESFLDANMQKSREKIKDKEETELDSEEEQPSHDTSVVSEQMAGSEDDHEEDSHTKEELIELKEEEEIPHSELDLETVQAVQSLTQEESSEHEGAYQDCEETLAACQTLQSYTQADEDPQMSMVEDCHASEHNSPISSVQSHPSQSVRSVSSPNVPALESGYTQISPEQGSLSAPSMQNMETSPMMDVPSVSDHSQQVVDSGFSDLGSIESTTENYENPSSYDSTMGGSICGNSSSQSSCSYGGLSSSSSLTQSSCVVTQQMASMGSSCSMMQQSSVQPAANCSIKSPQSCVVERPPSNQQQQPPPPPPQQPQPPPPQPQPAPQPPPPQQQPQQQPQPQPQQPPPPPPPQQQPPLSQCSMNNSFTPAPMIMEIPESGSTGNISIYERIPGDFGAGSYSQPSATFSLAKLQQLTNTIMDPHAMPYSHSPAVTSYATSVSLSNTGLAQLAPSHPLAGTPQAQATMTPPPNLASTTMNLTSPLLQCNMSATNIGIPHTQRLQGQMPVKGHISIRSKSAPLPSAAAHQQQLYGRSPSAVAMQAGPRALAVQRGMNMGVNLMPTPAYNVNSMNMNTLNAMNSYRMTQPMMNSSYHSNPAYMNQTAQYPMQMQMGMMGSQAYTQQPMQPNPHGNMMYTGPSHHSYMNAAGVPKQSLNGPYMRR
Chain of HBO1-KAT7 (O95251 other isoform, or with tags, fused parts or gaps): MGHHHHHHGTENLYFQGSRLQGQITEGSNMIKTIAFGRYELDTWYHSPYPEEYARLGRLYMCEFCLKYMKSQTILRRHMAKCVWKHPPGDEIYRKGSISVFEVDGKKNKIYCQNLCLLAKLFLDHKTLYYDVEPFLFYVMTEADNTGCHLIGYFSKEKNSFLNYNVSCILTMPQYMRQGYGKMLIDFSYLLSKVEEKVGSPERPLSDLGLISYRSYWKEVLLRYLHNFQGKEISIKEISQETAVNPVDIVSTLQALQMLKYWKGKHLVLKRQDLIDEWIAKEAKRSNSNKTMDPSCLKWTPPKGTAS
Method for KAT6B: (§1) Prepare 10 mM stock solutions in 100% DMSO from solid material • 2. Serial dilute 10 mM, 1 mM or 0.1 mM compound stocks 3-fold in 100% DMSO for 11-point dose response
(§2) Prepare 1× assay buffer containing 10 mM Tris HCL pH 8.0, 2.5 mM NaCl, 0.5 mM EDTA, 0.005% BSG and 0.02% Tween-20 • 2. Dilute Histone peptide (CPC Scientific) and AcCoA (Sigma) together in assay buffer to 2×. • 3. Dilute KAT enzyme in assay buffer to 2×.
(§3) Enzyme reaction • 1. Final reaction conditions for each KAT assay in a 20 ul assay reaction volume: • i. KAT5 25 nM, 1 uM AcCoA, 2 uM H4 1-21 peptide, 30-minute reaction • ii. KAT6A 15 nM, 1 uM AcCoA, 2 uM H3 1-21 peptide, 45-minute reaction • iii. KAT6B 25 nM, 1 uM AcCoA, 2 uM H3 1-21 peptide, 60-minute reaction • iv. KAT7 12.5 nM, 1 uM AcCoA, 2 uM H3 1-21 peptide, 45-minute reaction • v. KAT8 15 nM, 1 uM AcCoA, 2 uM H3 1-21 peptide, 45-minute reaction • 2. Add 0.5 ul of diluted compound to the assay plate (384-well V-bottom polypropylene plates) or 0.5 ul of DMSO for control wells. • 3. Add 10 ul of 2× Histone peptide/2×AcCoA mix to the assay plate. • 4. Add 10 ul of 2× enzyme to the assay plate. • 5. Stop the reaction after the indicated time with the addition of 2 ul of 5% formic acid • 6. Each reaction was analyzed using self-assembled monolayer desorption/ionization time-of-flight mass spectrometry (Mrksich, Milan (2008) Mass Spectrometry of Self-Assembled Monolayers: A New Tool for Molecular Surface Science ACS Nano 2008 2 (1), 7-18; SAMDI Tech, Inc. (Chicago, Ill.)). • 7. Area under the curve (AUC) for both substrate and product peaks was determined for KAT5 at M.W. 2561 [Substrate+H]^+ and 2603 [Product+H]^+ with a +/−1 Da tolerance, respectively • 8. Area under the curve (AUC) for both substrate and product peaks was determined for KAT6a, KAT6B, KAT7 and KAT8 at M.W. 2723 [Substrate+H]^+ and 2765 [Product+H]^+ with a +/−1 Da tolerance, respectively. […] Percent conversion to product was calculated by: AUCProduct/(AUCsubstrate+AUCProduct).
(§4) IC50 values were determined by fitting the % conversion at each inhibitor concentration to the 4-parameter IC50 equation using Pfizer proprietary curve fitting software. • 2. Ki values were determined by fitting the % conversion at each inhibitor concentration to the Morrison equation for tightbinding competitive inhibitors using Pfizer proprietary curve fitting software.
(§5) KAT enzymes were expressed using a baculovirus expression system and purified at Pfizer, La Jolla. […] Acetyl coenzyme A was purchased from Sigma-Aldrich (St. Louis, Mo.). All other biochemical reagents were purchased from Sigma-Aldrich or ThermoFisher Scientific (Waltham, Mass.).
(§6) KAT assays were performed at room temperature in assay buffer containing 1 μM AcCoA, 2 μM histone peptide, 10 mM Tris HCL pH 8.0, 2.5 mM NaCl, 0.5 mM EDTA, 0.005% BSG and 0.02% Tween-20. 10 ul of 2× Histone peptide/AcCoA mix was added to a 384-well V-bottom polypropylene assay plate containing 0.5 ul of serially diluted test compound in 100% dimethyl sulfoxide (DMSO). To start the reaction, 10 ul of 2× enzyme solution was added to the assay plate. KAT assays were terminated after 30-60 minutes with the addition of 2 ul of 5% formic acid. All assays used histone H3 (1-21) peptide except for the KAT5 assay which used histone H4 (1-21) peptide. The final enzyme concentration for each KAT was as follows: KAT5, 25 nM; KAT6A, 15 nM; KAT6B, 25 nM; KAT7, 12.5 nM; KAT8 15 nM. Each reaction was analyzed using self-assembled monolayer desorption/ionization time-of-flight mass spectrometry (Mrksich, Milan (2008) Mass Spectrometry of Self-Assembled Monolayers: A New Tool for Molecular Surface Science ACS Nano 2008 2 (1), 7-18; SAMDI Tech, Inc. (Chicago, Ill.)).
(§7) Area under the curve (AUC) for both substrate and product peaks was determined for KAT5 at M.W. 2561 [Substrate+H]^+ and 2603 [Product+H]^+ with a +/−1 Da tolerance, respectively.
Method for KAT8: as §1, §2, §3, §4, §5, §6, §7

Broadly, the IC50 is the concentration needed to halve the response being measured. With `COc1cccc(OC)c1S(=O)(=O)Nc1noc2c(-c3cnn(C)c3)cc(C)cc12` [Example 102, 2,6-dimethoxy-N-(5-methyl-7-(1-methyl-1H-pyrazol-4-yl)benzo[d]isoxazol-3-yl)benzenesulfonamide], the IC50 was 48800 nM at MOZ-KAT6A; 1400 nM on HBO1-KAT7; 28300 nM in assay [1]; greater than 125 µM at TIP60-KAT5; greater than 40 µM in [2].

For orientation: Ki means a dissociation constant, usually derived from enzyme kinetics or from competition with a known ligand. For `COc1cccc(OC)c1S(=O)(=O)Nc1noc2cc(Cn3cc(C)cn3)cc(OC)c12` [Example 100, 2,6-dimethoxy-N-(4-methoxy-6-((4-methyl-1H-pyrazol-1-yl)methyl)benzo[d]isoxazol-3-yl)benzenesulfonamide], the IC50 against MOZ-KAT6A amounted to 30 nM; on HBO1-KAT7, 340 nM; in assay [1], 1360 nM; against TIP60-KAT5, 11.2 µM; in assay [3], 46 nM; in assay [2] it was 15 µM. Besides, the Ki amounted to 610 nM on KAT7 (KAT7 Ki at 1 μM AcCoA); 4.95 µM on KAT8 (1 μM AcCoA); 58.3 nM on KAT6B (1 μM AcCoA); 40.3 nM on KAT6A (KAT6a Ki at 1 μM AcCoA, 1 μM AcCoA); 6220 nM on KAT5 (1 μM AcCoA).

In assay [3], `COc1cccc(OC)c1S(=O)(=O)Nc1noc2cc(Cn3cccn3)cc(OC)c12` [Example 98, N-(6-((1H-pyrazol-1-yl)methyl)-4-methoxybenzo[d]isoxazol-3-yl)-2,6-dimethoxybenzenesulfonamide] displayed a half-maximal inhibitory concentration (IC50) of 0.6 nM. This lies in the sub-nanomolar range.

Turning to `CCOc1ccccc1S(=O)(=O)Nc1noc2cc(Cn3cccn3)cc(OC)c12` [Example 51], the Ki on KAT7 (setting [4]) came out at 90 nM; at KAT8 (setting [5]), 1.11 µM; at KAT6B (setting [6]) it was 4.13 nM; at KAT6A (setting [7]) it was 2.71 nM; on KAT6A (setting [8]) it was 1.67 nM; on KAT5 (setting [9]), 770 nM.

In the case of `COc1cc(Cn2cccn2)cc2onc(NS(=O)(=O)c3cccc(C)c3F)c12` [Example 70], the Ki at KAT7 (setting [4]) came out at 140 nM; at KAT8 (setting [5]) it was 3.26 µM; at KAT6B (setting [6]), 1.9 nM; on KAT6A (setting [7]) it was 2.28 nM; at KAT6A (setting [8]), 3.27 nM; at KAT5 (setting [9]), 410 nM.

Regarding `COc1cccc(OC)c1S(=O)(=O)Nc1noc2cc(Cn3ccnn3)cc(OC)c12` [Example 22], the inhibition constant Ki came to 12900 nM at KAT7 (setting [4]); 17.4 µM at KAT8 (setting [5]); 13.2 nM on KAT6B (setting [10]); 16.5 nM on KAT6A (setting [7]); 11700 nM at KAT5 (setting [9]).

Turning to `COc1cc(OC)c(S(=O)(=O)Nc2noc3cc(Cn4cccn4)cc(OC)c23)c(OC)c1` [Example 14], the Ki on KAT7 (setting [4]) worked out at 50 nM; at KAT8 (setting [5]) it was 0.42 µM; on KAT6B (setting [6]) it was 1.05 nM; on KAT6A (setting [7]), 1.12 nM; on KAT6A (setting [8]), 0.49 nM; at KAT5 (setting [9]) it was 270 nM.

For the molecule `COc1cc(Cn2cccn2)cc2onc(NS(=O)(=O)c3ccc(C)c(F)c3)c12` [Example 79], the Ki came out at 220 nM on KAT7 (setting [4]); 3.26 µM on KAT8 (setting [5]); 4.27 nM on KAT6B (setting [6]); 5.11 nM at KAT6A (setting [7]); 4.98 nM at KAT6A (setting [8]); 1440 nM on KAT5 (setting [9]).

As to `COc1ccc(S(=O)(=O)Nc2noc3cc(Cn4cccn4)cc(OC)c23)cc1C` [Example 84], the Ki on KAT7 (setting [4]) was determined as 190 nM; on KAT8 (setting [5]) it was 12.5 µM; at KAT6B (setting [6]), 12.3 nM; on KAT6A (setting [7]), 7.86 nM; on KAT6A (setting [8]), 5.61 nM; on KAT5 (setting [9]), 4630 nM.

For the molecule `COc1cc(Cn2cccn2)cc2onc(NS(=O)(=O)c3ccc(C)c(C)c3)c12` [Example 72], the inhibition constant (Ki) at KAT7 (setting [4]) is 140 nM; at KAT8 (setting [5]), 12.5 µM; at KAT6B (setting [6]), 6.97 nM; on KAT6A (setting [7]), 2.86 nM; at KAT6A (setting [8]), 2.36 nM; on KAT5 (setting [9]) it was 2960 nM.

`COc1cccc(OC)c1S(=O)(=O)Nc1noc2cc(Cn3cccn3)cc(F)c12` [Example 94]: the inhibition constant Ki turned out to be 630 nM at KAT7 (setting [4]); 3.26 µM at KAT8 (setting [5]); 2.5 nM on KAT6B (setting [6]); 5.15 nM at KAT6A (setting [7]); 3640 nM at KAT5 (setting [9]).

Turning to `COc1cc(C2CC2)cc(OC)c1S(=O)(=O)Nc1noc2cc(Cn3cccn3)cc(OC)c12` [Example 24], the Ki was 20 nM at KAT7 (setting [4]); 0.16 µM at KAT8 (setting [5]); 1.89 nM at KAT6B (setting [6]); 1.01 nM on KAT6A (setting [7]); 0.46 nM at KAT6A (setting [8]); 190 nM at KAT5 (setting [9]).

Turning to `COc1cc(Cn2cccn2)cc2onc(NS(=O)(=O)c3cccc4cc(C)cnc34)c12` [Example 99, N-(6-((1H-pyrazol-1-yl)methyl)-4-methoxybenzo[d]isoxazol-3-yl)-3-methylquinoline-8-sulfonamide], the half-maximal inhibitory concentration (IC50) on MOZ-KAT6A was found to be 13 nM; on HBO1-KAT7, 120 nM; in assay [1], 1550 nM; at TIP60-KAT5, 0.98 µM; in assay [2], 11.4 µM.

Regarding `COc1cccc(OC)c1S(=O)(=O)Nc1noc2cc(-c3cnn(C)c3)cc(OC)c12` [Example 101, 2,6-dimethoxy-N-(4-methoxy-6-(1-methyl-1H-pyrazol-4-yl)benzo[d]isoxazol-3-yl)benzenesulfonamide], the IC50 is 1260 nM on MOZ-KAT6A, 1550 nM at HBO1-KAT7 and 11.2 µM at TIP60-KAT5.

With `CCc1ccc(OC)c(S(=O)(=O)Nc2noc3cc(Cn4cccn4)cc(OC)c23)c1` [Example 1, 5-ethyl-2-methoxy-N-{4-methoxy-6-[(1H-pyrazol-1-yl)methyl]-1,2-benzoxazol-3-yl}benzene-1-sulfonamide], the inhibition constant (Ki) was determined as 50 nM on KAT7 (setting [4]); 0.11 µM at KAT8 (setting [5]); 1.14 nM on KAT6B (setting [6]); 0.68 nM at KAT6B (setting [10]); 0.55 nM on KAT6A (setting [7]); 0.43 nM at KAT6A (setting [8]). In addition, the inhibitory constant (Ki) at KAT5 (setting [9]) was 120 nM.
